Values quoted from earlier work as cited in article PMC12006171, “Marsupial cathelicidins: characterization, antimicrobial activity and evolution in this unique mammalian lineage” (Frontiers in Immunology, 2025).
Like-named read-outs stand apart in the source and are kept apart here.

Key:
[1] = system: three fungi (Candida krusei, Candida parapsilosis, Candida albicans); design: method as in 4 sources, ref Peel et al 2016 ||| ref Peel et al 2021 ||| ref Wang et al 2011 ||| ref Peel et al 2017; settings: cited from earlier work
[2] = system: six bacteria (S. aureus, E. coli, P. aeruginosa; ATCC and clinical isolate); design: method as in 4 sources, ref Peel et al 2016 ||| ref Peel et al 2021 ||| ref Wang et al 2011 ||| ref Peel et al 2017; settings: cited from earlier work
[3] = mature peptide, Y/N summary from earlier study, ref Peel et al 2021
[4] = mature peptide (MP), Y/N summary, ref Peel et al 2017
[5] = mature peptide, Y/N summary from earlier study, ref Peel et al 2017
[6] = mature peptide, Y/N summary from earlier study, ref Peel et al 2016

## NFIHQKYRILLDKYRKLQDIFSGSGDKV [PhciCath2]
[1]; [3]
  Antifungal (MIC <64ug/mL): N (Peel et al 2021) (Antifungal (MIC <64ug/mL))
[2]; [3]
  Antibacterial (MIC <64ug/mL): N (Peel et al 2021) (Antibacterial (MIC <64ug/mL))

## LYRRRKYPTSYYLLLGGKGNNRGYKPHIIYV [ModoCath11]
[1]; [4]
  Antifungal (MIC <64ug/mL): N (Peel et al 2017) (Antifungal (MIC <64ug/mL))
[2]; [4]
  Antibacterial (MIC <64ug/mL): N (Peel et al 2017) (Antibacterial (MIC <64ug/mL))

## PGRKKGSKRHKPGSYSVIALGKPGVKKSPYMEAL [MaeuCath8]
[1]; [5]
  Antifungal (MIC <64ug/mL): N (Peel et al 2017) (Antifungal (MIC <64ug/mL))
[2]; [5]
  Antibacterial (MIC <64ug/mL): N (Peel et al 2017) (Antibacterial (MIC <64ug/mL))

## KRMGIFHLFWAGLRKLGNLIKNKIQQGIENFLG [SahaCath3]
[1]; [6]
  Antifungal (MIC <64ug/mL): Y (Peel et al 2016) (Antifungal (MIC <64ug/mL))
[2]; [6]
  Antibacterial (MIC <64ug/mL): N (Peel et al 2016) (Antibacterial (MIC <64ug/mL))

## PPEPLRFKRIRCLNGRKCNYHNLLLTIVPHWRIPKGK [PhciCath3]
[1]; [3]
  Antifungal (MIC <64ug/mL): N (Peel et al 2021) (Antifungal (MIC <64ug/mL))
[2]; [3]
  Antibacterial (MIC <64ug/mL): N (Peel et al 2021) (Antibacterial (MIC <64ug/mL))

## APVTPAPPGFTTSSKKKGKKKLPYTVIFGRTDFP [ModoCath3]
[1]; [4]
  Antifungal (MIC <64ug/mL): N (Peel et al 2017) (Antifungal (MIC <64ug/mL))
[2]; [4]
  Antibacterial (MIC <64ug/mL): N (Peel et al 2017) (Antibacterial (MIC <64ug/mL))

## SKTKRRSLLKRLGDGIRGFWNGFRGRK [ModoCath4]
[1]; [4]
  Antifungal (MIC <64ug/mL): Y (Peel et al 2017) (Antifungal (MIC <64ug/mL))
[2]; [4]
  Antibacterial (MIC <64ug/mL): Y (Peel et al 2017) (Antibacterial (MIC <64ug/mL))
